The results in this text go back to patent US8367060B2, “Pharmaceutical composition containing arazyme for the prevention of liver dysfunction” (Insect Biotech Co., Ltd., priority 2006, dated 2013).

Entries after “also recorded” stand apart in the source; their conditions may differ.

The subject of assay [1] is SMP30. The experiment in a line: Expression of SMP30 in liver cells by immunoblotting. The assay is classed as in vivo. The following applies: wild type mice; 100 mg/kg oral before CCl4; compared with CCl4 only (G2). The protocol:
(§1) Wild type mice and SMP30 knock-out mice were divided, by 5 of each, into negative control groups (G1, G5), positive control groups (G2, G6), two of experimental group 1 (G3, G7) and two of experimental group 2 (G4, G8) (Table 1). Intraperitoneal administration of olive oil was performed once to negative control mice (G1, G5), while intraperitoneal administration of CCl4 (0.4 ml/kg) was performed once to positive control mice (G2, G6). In the meantime, 100 mg/kg of vitamin C dissolved in tap water was orally administered to experimental group 1 mice (G3, G7) one day before the intraperitoneal administration of CCl4 (0.4 ml/kg). 100 mg/kg of arazyme dissolved in tap water was orally administered to experimental group 2 mice (G4, G8) one day before the intraperitoneal administration of CCl4 (0.4 ml/kg). 24 hours after the administration of CCl4, autopsy was performed in every mouse and samples were taken from each mouse for histopathological test.
(§2) The expression of SMP30 in liver cells was investigated by immunoblotting. First, the liver tissues frozen at −70° C. were homogenized in RIPA buffer containing 0.1 mM sodium orthovandate (Na3VO4) and protease inhibitor cocktail tablet (Roche, Mannheim, Germany). […] Protein concentration was measured by Bradford method and each protein sample proceeded onto 10% SDS-polyacrylamide gel at the concentration of 80 µg/well, followed by electrophoresis. […]
A general note: In western blotting, separated proteins are transferred to a membrane and probed.

The subject of a further assay is liver cells. The experiment in a line: Histopathological observation on liver cells (H&E) in CCl4-induced acute liver injury. The following applies: for necrosis in liver cells: 100 mg/kg oral one day before CCl4 0.4 ml/kg i.p., autopsy 24 hours after CCl4. It counts as in vivo, mice. The source says: In the present invention, male wild type C57BL/6(WT) at 12 weeks and SMP30 knock-out C57BL/6(KO) mice were used to induce liver injury by CCl4 and then the relation of SMP30 with arazyme was investigated. 10 male and 20 female SMP30 knock-out C57BL/6 mice were distributed from Tokyo Metropolitan Institute of Gerontology, which were then raised in the animal laboratory at Department of Pathology, College of Veterinary Medicine, Kyungpook National University, Korea. Among F1 mice generated by breeding, knock-out mice were selected by tail DNA genotyping by PCR.
Wild type mice were quarantined and adapted for 7 days in the animal laboratory. During the adaptation, every symptom was checked and only healthy animals were selected. Both wild type and SMP30 knock-out mice were 12 weeks old, excluding the difference in age.
Rats were adapted and raised in an animal facility where temperature was regulated to 22±3° C., humidity was adjusted to 55±10% and light was also regulated to 12L/12D (08:00 lights on, 20:00 lights out). The environmental conditions were checked regularly (every three months). After environmental evaluation, no changes in important conditions were recognized. During the whole experiment period, rats were raised in polycarbonate cages [240 W×390 L×175 H (mm)] by up to 5 per cage. Skin mark using an oil magic pen and individual identification card were used for distinguishment. Feed for laboratory animals (PMI Nutrition International, 505 North 4th Street Richmond, in 47374, USA) was provided at any time after being sterilized by irradiation (13.2 kGy). Tap water was provided using a water bottle at any time after being purified by a carbon filter. Carbon tetrachloride was diluted in olive oil at the concentration of 0.4 ml/kg and administered to […] once to induce liver injury. 24 hours after the administration, autopsy was performed.
Wild type mice and SMP30 knock-out mice were divided, by 5 of each, into negative control groups (G1, G5), positive control groups (G2, G6), two of experimental group 1 (G3, G7) and two of experimental group 2 (G4, G8) (Table 1). […]

Assay [2] concerns P-smad3. The experiment in a line: Expression of P-smad3 in liver cells by immunoblotting. The assay is classed as in vivo. The following applies: SMP30 knock-out mice; compared with CCl4 alone (G6). The protocol:
as §1, §2

For assay [3], the system named is SMP30. The experiment in a line: Immunohistochemical observation of SMP30 in liver cells. The assay is classed as in vivo. The following applies: wild type mice, 100 mg/kg oral before CCl4, compared with CCl4 alone. The procedure: as §1
To observe SMP30 in liver cells immunohistochemically, paraffin embedded tissues fixed with formalin were cut into 4 μm thick sections, followed by deparaffinization. To inhibit the activity of endogenous peroxidase, the sections were treated in 3% H2O2 for 30 minutes and washed with 0.01 M PBS. To increase antigen expression of the tissues, the sections were treated with 0.01 M citrate buffer, followed by heat treatment using microwave. […]

In assay [4] the test system is P-smad3. The experiment in a line: Immunohistochemical observation of P-smad3 expression in liver cells. The assay is classed as in vivo, mice. The following applies: 100 mg/kg oral before CCl4.

As for `O=C1O[C@H]([C@@H](O)CO)C(O)=C1O` [vitamin C, L-ascorbic acid, reference compound], in the assay with SMP30 [1], the “SMP30 expression (immunoblotting)” value is on record as “high”. The “necrosis in liver cells” value in the assay on liver cells (SMP30 knock-out C57BL/6 mice) and in the assay on liver cells (wild type C57BL/6 mice) was “significantly inhibited” in each case. Also, the “apoptosis of liver cells, histological observation” value in the assay on liver cells (wild type and SMP30 knock-out mice with acute liver injury) is recorded as “inhibition of apoptosis of liver cells was observed”. The “P-smad3 expression (immunoblotting)” value in the assay with P-smad3 [2] is given as “inhibited”. In addition, in the assay on SMP30 [3], the “SMP30 expression (immunohistochemistry)” value is listed as “higher; also recorded: more strongly expressed”. Moreover, the “P-smad3 immune response (immunohistochemistry)” value in the assay with P-smad3 [4] (SMP30 knock-out mice, G6, G7 compared with G8) is “strongly detected”; with P-smad3 [4] (wild type mice, compared with CCl4 only (G2), 100 mg/kg), “strong immune response against P-smad3 was detected in group 2 (G2) treated with CCl4 only, compared with the groups (G3, G4) treated with vitamin C and arazyme; also recorded: strongly observed in CCl4 treated group (G2), compared with the groups treated with vitamin C and arazyme (G3, G4)”.
